Measured values published in patent US9738731B2, “Lactic acid bacterium growth enhancer, regulatory T-cell number increasing agent, method of enhancing growth of lactic acid bacterium, method of increasing number of regulatory T-cells, method of evaluating regulatory T-cell number increasing effect, and method of evaluating lactic acid growth …” (TOKYO UNIVERSITY OF SCIENCE FOUNDATION, priority 2013, dated 2017).

Tested on: total cLP cells from WT mice
Experiment: Co-culture of total cLP cells with Lactobacillus strains, gene expression
Assay type: cell-based, mouse
Conditions: 1×10^5 cLP cells with 1×10^6 CFU, 12 h
Method: FIG. 7C: 1×10^5 total cLP cells from WT mice were co-cultured with 1×10^6 CFU (/well) L. murinus, L. animalis, L. salivarius, L. johnsonii or L. reuteri for 12 h. Cytokine gene expression was determined by real-time RT-PCR. Data in (FIGS. 7A-C) are representative of two independent experiments.
Total RNA was extracted with Mammalian Total RNA Miniprep kit (Sigma-Aldrich, St. Louis, U.S.) according to the manufacturer's instructions. RNA was denatured in the presence of an oligo dT primer and then reverse transcribed with the High Capacity cDNA Reverse Transcription Kit (Applied Biosystems, San Francisco, U.S.). Quantitative real-time RT-PCRs were performed with a SYBR Green qPCR kit (Carlsbad, U.S.) and an iCycler system (Bio-Rad, Hercules, U.S.) with the sets of primers described in Table 1, and the expression of each mRNA encoding cytokine was normalized with gapdh expression level.

Lactobacillus reuteri
expression of these genes (Tgfb, Il10, Foxp3, Rorc): did not modify
